# Laboratory results reported in patent EP0342433A2, “Substituted dibenzothiaphenes” (AMERICAN CYANAMID COMPANY, priority 1988, dated 1989).
# What was measured:
# [1] = system: SRBC; assay: Anti-SRBC antibody assay (antibody forming cells, plaques); assay type: in vivo, mice; conditions: oral, day 0, 200 or 600 mg/kg, SRBC IP day +4; for Production of Anti-SRBC Antibody, CPM Test No. 1: control 1,260; for Production of Anti-SRBC Antibody, CPM Test No. 2: control 830
# Method: Compounds were given orally on day 0 at doses of 200 or 600 mg/kg. 0.1 ml of a 10% suspension of sheep RBC (Red Blood Cell) was given IP on day +4. Ten days later splenocytes were obtained from these mice and either 4 x 10^6 ot 2 x 10^6 splenocytes in 50 µl were mixed with 50 µl of a 15% suspension of SRBC containing guinea pig complement (1:4 dilution). 100 ul of this mixture was placed onto a slide culture and incubated for 30 to 45 minutes at 37°C. The number of antibody forming cells was determined by counting the number of visible plaques formed.
# [2] = system: IL-2; assay: IL-2 assay: supernatants of Con A stimulated lymphocytes of treated mice, proliferation of indicator cells; assay type: in vivo; conditions: mice treated with 100 mg/kg, Con A for 2 days; for IL-2 ASSAY CPM, % Supernatants Tested 5: 5 % supernatant; for IL-2 ASSAY CPM, % Supernatants Tested 10: 10 % supernatant; for IL-2 ASSAY CPM, % Supernatants Tested 20: 20 % supernatant
# Method: Spleens were removed from mice and single-cell suspensions were prepared by teasing the spleens apart and rinsing through No. 40 and No. 80 stainless steel mesh screens. Erythrocytes were lysed by a 3- minute exposure to a 0.83% Tris-ammonium chloride solution. Cells were washed 3 times with HBSS and finally suspended in complete RPMI 1640 culture medium consisting of 5% FCS, 2mM L-glutamine, 5 x 10^-5M 2-mercaptoethanol, 10mM HEPES, 100 U/ml of penicillin, and 100 µg/ml of streptomycin. Cells were counted in a hemocytometer and the viability of test cells was always greater than 98% as judged by trypan blue dye exclusion.
# IL-2 was made by stimulating 10^7 B6 splenocytes with 1 µg Con A in 1 ml medium. Supernatants were harvested 2 days later and residual Con A was removed by Sephadex G-50 absorption or a-methyl mannoside inactivation. IL-2 activity was tested in the thymocyte proliferation assay described above. Additionally, test samples were added to cultures of lymphoblasts prepared by a three-day Con A stimulation or to IL-2 dependent CT11-2 cells. The proliferation of these indicator cells was measured 24 hours later by ^3HTdR incorporation.
# Lymphocytes prepared from normal mice or mice treated with 100 mg/kg of test compound were stimulated with Con A for 2 days. Culture supernatants were harvested and tested for putative IL-2 activity in 3 proliferation assays using thymocytes, lymphoblasts and CTLL-2 cells as indicators. Although supernatants from normal lymphocytes supported the growth of all indicator cells, lymphocytes from treated animals apparently produced more IL-2 as indicated by a greater degree of cell proliferation in all three test systems.
# [3] = system: colony stimulating factor (CSF); assay: Colony stimulating factor production: mouse sera tested on normal bone marrow cells; assay type: in vivo, mice; conditions: 10% test serum on normal marrow cells, 3 days, 3HTdR; for Production of Colony Stimulating Factor, CPM Test No. 2: control 3,118; for Production of Colony Stimulating Factor, CPM Test No. 1: control 548
# Method: Mouse femurs were removed and the marrow cells collected by aspiration through a 23 gauge needle and dispensed into 5 ml of RPMI 1640 culture medium. Aliquots were diluted with a 2% solution of acetic acid containing 0.2% crystal violet and the number of nucleated cells per femur was determined by direct count in a hemocytometer.
# Mouse sera were assayed for colony stimulating factor (CSF) in cultures of normal bone marrow cells. CSF was tested in a system in which 5 x 10" normal marrow cells were incubated with 10% test samples in each well of 96-well culture plates for 3 days. Proliferation of these cells was determined by ^3HTdR incorporation.
# [4] = system: IL-1; assay: IL-1 assay: supernatants of peritoneal exudate cells of orally treated mice, tested on thymocytes; assay type: in vivo, C57BI/6 mice; conditions: oral dose 25, 100 or 200 mg/Kg (not stated which), PEC collected four days later, 3H-TdR in thymocytes; for IL-1 ASSAY + LPS: with Lipopolysaccharide (10 μg/ml); for IL-1 ASSAY - LPS: without Lipopolysaccharide
# Method: Groups of C57BI/6 mice were treated orally with immunomodulator at doses of 25, 100 or 200 mg/Kg. Four days later peritoneal exudate cells (PEC) were collected and 1 x 10^5 cells were plated in RPMI-1640 medium containing 5% fetal calf serum (FCS). After 2 hours incubation at 37°C the non-adherent cells were washed off and the adherent cells were incubated for 24 hours in RPMI medium with 5% FCS with or without Lipopolysaccharide (10 u.g/ml). The following day the supernatants were collected and assayed for IL-1 on thymocytes. The cultures were incubated for 3 days and then pulsed with ^3H-TdR using 0.5 µCi/well. The cells were harvested and the number of counts per minute (CPM) was determined using a Beckman scintillation counter.
# [5] = system: P815 tumor cells; assay: Macrophage mediated tumor cytostasis (activation of tumoricidal macrophages in compound-treated mice); assay type: in vivo; conditions: macrophages from compound-treated mice vs normal control macrophages; 3HTdR incorporation into P815 cells; single oral dose, day 4
# Text: The test compounds apparently were able to activate these cells in vivo to inhibit the growth of tumor cells in cultures. These "activated" macrophages were detectable in peritoneal exudates of treated mice on day 4 after receiving a single oral dose of the test compound. (Table I). […] (Tables II and III). […] (Table V). Mice treated with the test compounds also respond better to foreign antigens such as sheep red blood cells (SRBC) as shown by their ability to produce higher levels of antibody to this foreign protein. (Table IV). […]
# P815 tumor cells obtained from D2 mice were washed twice with HBSS and suspended in 10% FCS- complete medium. Five x 10^3 P815 cells were added to culture wells containing B6 macrophages and the E:T ratios were determined by the numbers of PE cells added initially to each well. […] The amount of ^3HTdR incorporated into target cells was determined in a liquid scintillation counter. The mean cpm were obtained from triplicate cultures with results being presented as percent cytostasis calculated by the fol lowing formula: % cytostasis = (A-B)/A x 100 where A = cpm of cultures containing normal control macrophages; and B = cpm of cultures containing experimental macrophages obtained from compound-treated mice.
smiles,measurement,setting,value
"CCC(=Nc1ccc2c(c1)S(=O)(=O)c1cc(N=C(CC)N(C)C)ccc1-2)N(C)C [N , N""-3,7-Dibenzothiophenediylbis[N,N-dimethylpropanimidamide] S,S-dioxide]","Production of Anti-SRBC Antibody, CPM Test No. 1",[1],"1,437 CPM"
same,"IL-2 ASSAY CPM, % Supernatants Tested 5",[2],"3,238 CPM"
same,"IL-2 ASSAY CPM, % Supernatants Tested 10",[2],"9,050 CPM"
same,"IL-2 ASSAY CPM, % Supernatants Tested 20",[2],"14,568 CPM"
same,"Production of Colony Stimulating Factor, CPM Test No. 2",[3],"6,650 CPM"
same,IL-1 ASSAY + LPS,[4],"56,015 CPM"
same,IL-1 ASSAY - LPS,[4],"31,260 CPM"
"CCC(=Nc1ccc2c(c1)S(=O)(=O)c1cc(F)ccc1-2)N(C)C [N'-(7-Fluoro-3-dibenzothienyl)N,N-dimethylpropanimidamide S,S-dioxide]","Production of Anti-SRBC Antibody, CPM Test No. 2",[1],"1,474 CPM"
same,% Cytostasis,[5],77.4%
same,"Production of Colony Stimulating Factor, CPM Test No. 1",[3],"1,353 CPM"
"CCC(=Nc1ccc2c(c1)-c1cc(N=C(CC)N(C)C)ccc1S2(=O)=O)N(C)C [N,N'""-2,8-Dibenzothiophenediyibis[N,N-dimethyipropanimidamide] S,S-dioxide]","Production of Anti-SRBC Antibody, CPM Test No. 1",[1],"1,029 CPM"
same,"IL-2 ASSAY CPM, % Supernatants Tested 5",[2],"2,766 CPM"
same,"IL-2 ASSAY CPM, % Supernatants Tested 10",[2],"6,457 CPM"
same,"IL-2 ASSAY CPM, % Supernatants Tested 20",[2],"11,288 CPM"
same,"Production of Colony Stimulating Factor, CPM Test No. 2",[3],"6,513 CPM"
same,IL-1 ASSAY + LPS,[4],"44,983 CPM"
same,IL-1 ASSAY - LPS,[4],"52,160 CPM"
"CC(=O)Nc1ccc2c(c1)S(=O)(=O)c1cc(F)ccc1-2 [N-(7-Fluoro-3-dibenzothienyl)acetamide S,S-dioxide]","Production of Anti-SRBC Antibody, CPM Test No. 2",[1],"1,469 CPM"
same,"IL-2 ASSAY CPM, % Supernatants Tested 5",[2],"2,849 CPM"
same,"IL-2 ASSAY CPM, % Supernatants Tested 10",[2],"5,653 CPM"
same,"IL-2 ASSAY CPM, % Supernatants Tested 20",[2],"10,982 CPM"
same,% Cytostasis,[5],13.9%
same,"Production of Colony Stimulating Factor, CPM Test No. 1",[3],976 CPM
same,IL-1 ASSAY + LPS,[4],"36,320 CPM"
same,IL-1 ASSAY - LPS,[4],"50,677 CPM"
